US8440464B2, “Method for evaluation or selection of adiponectin secretion regulator” (Kao Corporation, priority 2008, dated 2013)

System: plasma adiponectin level
Test: Plasma adiponectin level in REM sleep deprivation rat model (platform method), rat adiponectin ELISA
Assay type: in vivo
Conditions: SD rats, 30-hour REM sleep deprivation, oral 150 mg/kg thrice every 12 hours (300 mg/kg/day), vs. control group receiving distilled water, P<0.05 (Fisher's PLSD test)
Method: SD rats (male, 10 to 11 weeks old) were divided into groups, each containing rats with similar body weights. A cylindrical platform (diameter: 6.0 cm, height: 2.5 cm) on which a rat can take a rest was placed in a cage, and water was added to the cage so that the water level was adjusted to 1 cm below the top of the platform. Each rat was reared for one to four days in the cage (one rat/cage). Rats of a rest group were reared in cages each containing a common floorcloth (N=4 for each group). In a chlorogenic acid administration experiment, rats were reared in cages for 30-hour REM sleep deprivation. Rats of a chlorogenic acid (5-CQA, product of Sigma) administration group orally received chlorogenic acid thrice every 12 hours by means of a probe (dose: 150 mg/kg (300 mg/kg/day)). Rats of a control group received distilled water. Rats of a rest group were reared in cages each containing a common floorcloth, and received distilled water (N=6 for each group). […] The plasma adiponectin level was determined by means of a rat adiponectin ELISA kit (product of ADIPOGEN®). Specifically, plasma was 1,000-fold diluted with a dilution buffer contained in the kit, and then plasma adiponectin level was determined according to the kit protocol.

Compound: O=C(/C=C/c1ccc(O)c(O)c1)O[C@@H]1C[C@](O)(C(=O)O)C[C@@H](O)[C@H]1O [chlorogenic acid]
- Effect on reduction in plasma adiponectin level caused by REM sleep deprivation: significantly suppressed a reduction in plasma adiponectin level
